Measurements as given in US20230364101A1, “DICLOFENAC PRODRUG AND USE OF THE SAME” (Pumont Biotech Co., Ltd., priority 2022, published 2023).
≈ marks a conversion by molar mass, not a printed value.

Experiments:
[1] = Solubility test using potassium phosphate buffer at pH 7.4; type: physicochemical; conditions: 5 mg prodrug in 10 mL potassium phosphate buffer pH 7.4, 37° C., HPLC-UV 254 nm; for solubility at 24 h: potassium phosphate buffer, 37 °C, pH 7.4, aqueous buffer, thermodynamic from solid, read-out: Solubility after 24 hours
Description: First, a respective one of the diclofenac prodrugs of EX5 to EX8 and EX12 was mixed with a potassium phosphate buffer (including 50 mM potassium phosphate, sodium chloride, and water; pH 7.4) and then placed in a constant temperature oscillator at 37° C. for 24 hours so as to dissolve the diclofenac prodrug, thereby obtaining a test sample. After that, the test sample was filtered through a filter having a pore size of 0.22 μm to obtain a filtrate. Next, the filtrate was mixed with acetonitrile in equal amounts, and then subjected to oscillation and centrifugation performed in sequence. The resultant supernatant fraction was subjected to HPLC with UV detection under a wavelength of 254 nm.

[2] = Determination of particle size (D90) after grinding; type: physicochemical; conditions: after grinding with mortar and homogenizer in 0.125 wt % Tween 20; initial particle size about 60 μm
Description: The solid particles of the diclofenac prodrugs of EX5 and EX8 were subjected to grinding in order to be formulated into a soluble liquid suspension suitable for intraarticular injection. In general, first, the solid particles of diclofenac prodrugs and deionized water were mixed to form a liquid suspension. Next, the liquid suspension was ground using a homogenizer and then subjected to oscillation treatment to obtain a test sample. Then, the test sample was subjected to determination of particle size distribution. Afterwards, the test sample includes solid particles having a size ranging from 20 μm to 30 μm was centrifuged and lyophilized, followed by determination of purity using HLPC. […]
To be specific, 100 mg of the diclofenac prodrug of EX5 having an initial particle size of about 60 μm was manually ground using a mortar, and then mixed with 2.0 mL of an aqueous solution containing 0.125 wt % of Tween 20 and deionized water, so as to obtain a slurry. […] The thus determined average particle size D90 of the diclofenac prodrug of EX5 was 8.4 μm.
Meanwhile, 102 mg of the diclofenac prodrug of EX8 having an initial particle size of about 60 μm was manually ground using a mortar, and then mixed with 2.0 mL of an aqueous solution containing 0.125 wt % of Tween 20 and saline, so as to obtain a slurry. […] The thus determined average particle size D90 of the diclofenac prodrug of EX8 was 18.2 μm.

| SMILES | Solubility after 24 hours [1] [µg/mL] | Solubility after 24 hours ([1]; listed as EX5 (crystalline)) [µg/mL] | average particle size D90 [2] [μm] | solubility at 24 h [1] [µg/mL] |
| --- | --- | --- | --- | --- |
| O=C(Cc1ccccc1Nc1c(Cl)cccc1Cl)OCOC(=O)N1CCOCC1 [EX5 (amorphous), (2-(2-((2,6-dichlorophenyl)amino)phenyl)acetoxy)methyl morpholine-4-carboxylate] | 4.24 (≈ 9.65 µM) |  |  |  |
| O=C(Cc1ccccc1Nc1c(Cl)cccc1Cl)OCOC(=O)N1CCOCC1 [EX5, (2-(2-((2,6-dichlorophenyl)amino)phenyl)acetoxy)methyl morpholine-4-carboxylate] |  | 0.06 (≈ 0.137 µM) | 8.4 |  |
| CC1(C)OCC(COC(=O)OCOC(=O)Cc2ccccc2Nc2c(Cl)cccc2Cl)O1 (stereo not shown) [EX6, ((((2,2-dimethyl-1,3-dioxolan-4-yl)methoxy)carbonyl)oxy)methyl 2-(2-((2,6-dichlorophenyl)amino)phenyl)acetate] |  |  |  | 0.33 (≈ 0.681 µM) |
| O=C(Cc1ccccc1Nc1c(Cl)cccc1Cl)OCOC(=O)OCC(O)CO (stereo not shown) [EX7, (((2,3-dihydroxypropoxy)carbonyl)oxy)methyl 2-(2-((2,6-dichlorophenyl)amino)phenyl)acetate] |  |  |  | 269 (≈ 604 µM) |
| O=C(Cc1ccccc1Nc1c(Cl)cccc1Cl)OCOC(=O)OCCCO [EX8, (((3-hydroxypropoxy)carbonyl)oxy)methyl 2-(2-((2,6-dichlorophenyl)amino)phenyl)acetate] |  |  | 18.2 | 28.4 (≈ 66.4 µM) |
